{Fethoc} = N-terminal Fethoc cap; [C(1O2)] = modified PNA monomer acting as cytosine, C(pOq) type, 1O2; [A(5)] = modified PNA monomer acting as adenine, A(p) type, p=5; [G(5)] = modified PNA monomer acting as guanine, G(p) type, p=5; {NH2} = C-terminal amide
Key:
10-mer complementary DNA = assay: Tm between PNA derivatives and 10-mer complementary DNA (N- or C-terminal); type: binding; settings: uncorrected
Method in brief: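 Tm read by UV at 260 nm for duplexes formed by annealing (90 °C for a minute, slow cooling to ambient) of equimolar 4 μM PNA and complementary 10-mer DNA targeting N- or C-terminal, in 10 mM sodium phosphate, 100 mM NaCl, pH 7.16.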

Nav1.7 protein = assay: Nav1.7 western blot in rat L5 DRG neuronal cells; type: cell-based; settings: rat DRG neuronal cells (L5/L6 ligation)
Protocol: “SCN-ASO 30” was evaluated for its ability to inhibit the expression of Nav1.7 protein in rat DRG neuronal cells as described below.
[Preparation of DRG Neuronal Cells] Male SD rats (7 weeks old) were subjected to tight “L5/L6 ligation”. 7 days later, 4 rats were anesthetized with zoletil/rompun to sample the L5 DRG of the ligated side. The DRGs were pooled and processed to prepare DRG neuronal cells as described in “SCN9A Example 12”.
[ASO Treatment] DRG neuronal cells were treated with “SCN-ASO 30” at 0 (negative control), 10, 100 or 1,000 zM for 24 hours, and then subjected to lysis for western blot against a Nav1.7 antibody (Cat. No. ab85015, Abcam) probing the C-terminal of the Nav1.7 protein. β-actin was probed for reference.

[1] = system: sodium current in rat L5 DRG neuronal cells; assay: Manual patch clamp sodium current in rat L5 DRG neuronal cells; type: cell-based; settings: rat L5 DRG neuronal cells (L5/L6 ligation), small size, 100 zM, 4 hours
Protocol: “SCN-ASO 30” was evaluated for its ability to inhibit the sodium current in rat L5 DRG neuronal cells stimulated with L5/L6 ligation as provided below.
[Preparation of DRG Neuronal Cells] Male SD rats (6 weeks old) were subjected to tight “L5/L6 ligation”. 7 days later, rats were anesthetized with zoletil/rompun for the extraction of L5 DRG of the ligated side. […]

full-length SCN9A mRNA = assay: SCN9A qPCR by cDNA synthesis with random hexamers in rat L5 DRG cells; type: cell-based; settings: 24 hours
Protocol: “SCN-ASO 30” was evaluated by SCN9A qPCR for its ability to inhibit the expression of the SCN9A mRNA in rat L5 DRG cells. Total RNA was prepared as described in “SCN9A Example 15”, and subjected to cDNA synthesis using random hexamers.
The cDNA solutions were also subjected to qPCR amplification for the GAPDH mRNA. The Ct values of the SCN9A mRNA were normalized against the Ct values of GAPDH mRNA.

human AR pre-mRNA = assay: AR nested PCR for exon skipping in MCF7 cells; type: cell-based; settings: 3 hours
Protocol: “AR-ASO 1” was evaluated by AR nested PCR for its ability to induce the skipping of exon 5 of the human AR mRNA in MCF7 cells as follows. [Cell Culture & ASO Treatment] MCF7 cells (Cat. Number: HTB-22, ATCC) were maintained in EMEM medium supplemented with 10% FBS, 1% streptomycin/penicillin, and 0.01 mg/mL bovine insulin under 5% CO2 atmosphere at 37° C. Cells grown in 60 mm culture dish were treated with “AR-ASO 1” for 3 hours at 0 (negative control), 3, 30, 300 or 3,000 aM (i.e., 3 fM). [RNA Extraction] Total RNA was extracted using “Universal RNA Extraction Kit” (Cat. No. 9767, Takara) according to the manufacturer's instructions [cDNA Synthesis by One Step RT-PCR] […] NO: 55); and AR-exon 9_reverse: (5'→3') […] [Nested PCR Amplification] Throughout the amplification process, was used a unique amplification technique (touch up as increasing annealing temperature per cycle) that worked efficiently and specifically over a temperature range, rather than at one specific annealing temperature (i.e., conventional PCR method). […] NO: 57); and AR-exon 7n_reverse: (5'→3') […] […] The bands of target size were collected and analyzed by Sanger Sequencing. […] “AR-ASO 1” was evaluated for its exon skipping ability in MCF7 cells grossly showing the morphology of cumulus shape as described in “AR Example 1”, unless noted otherwise. […]

AR protein = assay: AR western blot in MCF7 cells; type: cell-based, human; settings: 10 zM to 30 aM, 48 hours
Protocol: 4 culture dishes for the negative control. 48 hours later, cells were washed 2× with cold PBS, and then subjected to lysis with 200 μL 1× cell lysis buffer (Cat. No. 9803, Cell Signaling Tech) supplemented with 1× protease inhibitors (Cat. No. P8340, Sigma). The lysates were collected in 1.5 mL e-tube. 200 μL of each lysate was mixed with 100 μL 3× sample buffer, and boiled for 5 min. 20 μL of each lysate (4 negative controls and 8 ASO treatment samples) was subjected to electrophoretic separation on a 8% SDS-PAGE gel, and transferred onto a PVDF membrane. The membrane was probed with an anti-AR antibody (Cat. Number 5153, Cell Signaling Tech) and an anti-3-actin antibody (Cat. Number sc4778, Santa Cruz).

AR mRNA = assay: qPCR by SYBR Green for AR mRNA in MCF7 cells; settings: 5 hours
Protocol: [ASO Treatment and RNA Extraction] […] (2 culture dishes per concentration) 5 hours later, total RNA was extracted using “MiniBEST Universal RNA Extraction Kit” according to the manufacturer's instructions (Cat. Number 9767, Takara).
[cDNA Synthesis with OligodT]
The PCR reactions were probed by SYBR Green (Takara, Japan).

Row | Substance | Tm Value, 10-mer DNA against C-Terminal (10-mer complementary DNA) | Tm Value, 10-mer DNA against N-Terminal (10-mer complementary DNA) | full-length Nav1.7 protein band at 220-240K (Nav1.7 protein; 10 zM, 24 hours) | Nav1.7 expression by western blot (Nav1.7 protein; 100 and 1,000 zM, 24 hour) | decrease of sodium current (manual patch clamp, normalized against cell size) [1] | decrease of full-length SCN9A mRNA expression level (random hexamers, normalized against GAPDH) (full-length SCN9A mRNA) | skipping of AR exon 5 by nested PCR (human AR pre-mRNA; MCF7 cells of cumulus shape morphology, 30, 100 or 1,000 aM) | AR exon skipping by nested PCR (human AR pre-mRNA; MCF7 cells, 3, 30, 300 or 3,000 aM) | AR band (120K size) intensity by western blot (AR protein) | AR exon levels (SYBR Green), rebound (AR mRNA; 1 aM (1,000 zM)) | decrease of AR exon 4-6 levels (SYBR Green) (AR mRNA; 100 zM)
1 | Fethoc-AA(5)G-TG(5)T-A(5)CC(1O2)-TA(5)A-A(5)G-NH2 (AAGTGTACCTAAAG; all peptide nucleic acid (PNA), [A(5)] at 2, 7, 11, 13, [G(5)] at 5, [C(1O2)] at 9, 5' {Fethoc}, 3' {NH2}; peptide nucleic acid written N to C) [SCN-ASO 30] | 74.0 °C | 79.0 °C | detected | markedly inhibited | ~90% | 45-75% |  |  |  |  | 
2 | Fethoc-C(1O2)TT-A(5)CC-A(5)GG-C(1O2)AA(5)-G-NH2 (antisense CTTACCAGGCAAG; all peptide nucleic acid (PNA), [C(1O2)] at 1, 10, [A(5)] at 4, 7, 12, 5' {Fethoc}, 3' {NH2}; peptide nucleic acid backbone) [AR-ASO 1] | 81.3 °C | 86.1 °C |  |  |  |  | distinctively predominant | induce the skipping of exon 5, exons 4-5, and exons 4-6 | weaker than the intensity of their neighboring lysates | rebounded close toward the negative control levels | 40-50%

Reference: patent US12624068B2, “Exon skipping by peptide nucleic acid derivatives” (OliPass Corporation, priority 2016, dated 2026)
